From the supplement of paper PMC10627819

Tests used:
Details in all cases: main component drawn
[1] = system: S. aureus DSM 20231; assay: Bliss interaction score (quartile over a dose matrix) (fitness difference); higher = more antagonism (negative = synergy)
In short: (§1)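 Each OD595 reading at entry into stationary phase was scaled to the robust mean of the untreated wells on its plate, with a ceiling of 1. These ratios define fitness, and single-drug fitness was inferred from combinations. The Bliss score compares observed fitness with the product-based expectation and is reported as quartiles across all replicate types, technical, biological and donor/recipient.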

[2] = system: S. pneumoniae D39V; assay: as above
In short: as §1

[3] = system: B. subtilis 168; assay: as above
In short: as §1

[4] = system: S. aureus Newman; assay: as above
In short: as §1

[5] = system: S. pneumoniae D39V; assay: fitness (endpoint OD595 vs no drug) (fraction); higher = more growth
In short: (§2)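 Plates with 384 wells were inoculated at OD595 0.01 using 30 µl of TSB, LB Lennox or CY, or 55 µl for S. pneumoniae. Incubation was at 37 °C, with OD595 measured every 30 min for 14 h. Fitness is the stationary-phase transition optical density over the robust mean of no-drug control wells, after first-reading background subtraction; it is capped at 1.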

[6] = system: B. subtilis 168; assay: as above
In short: as §2

[7] = system: S. aureus Newman; assay: as above
In short: as §2
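For Bliss interaction score (quartile over a dose matrix) in this document: first quartile when negative (synergy) and third quartile when positive (antagonism).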

CNC(C)C1CCC(N)C(OC2C(N)CC(N)C(OC3OCC(C)(O)C(NC)C3O)C2O)O1 (configuration not stated) [Gentamicin] + CC1=C\[C@@H](O)CC(=O)Cc2nc(co2)C(=O)N2CCC=C2C(=O)O[C@H](C(C)C)[C@H](C)/C=C/C(=O)NC\C=C\1 [Virginiamycin M1]
Details | Bliss interaction score
[1] | 0.094
[2] | 0.0786
[3] | -0.0977
[4] | -0.0365

fitness, one replicate
Details | first compound 1 µg/mL | first compound 2 µg/mL | first compound 4 µg/mL | first compound 8 µg/mL
[5], partner 0.15 µg/mL | – | ≥ 1 | ≥ 1 | ≥ 1
[5], partner 0.3 µg/mL | – | ≥ 1 | ≥ 1 | 0.944
[7], partner 0.5 µg/mL | 0.849 | 0.873 | 0.22 | –
[7], partner 1 µg/mL | 0.961 | ≥ 1 | 0.0961 | –
[7], partner 2 µg/mL | 0.849 | 0.792 | 0.0867 | –

fitness
Details | partner 0.0625 µg/mL | partner 0.125 µg/mL | partner 0.25 µg/mL | partner 0.5 µg/mL | partner 1 µg/mL | partner 2 µg/mL
[5], first compound 2 µg/mL | – | – | – | 0.973 | ≥ 1 | 0.952
[5], first compound 4 µg/mL | – | – | – | 0.99 | ≥ 1 | 0.973
[5], first compound 8 µg/mL | – | – | – | 0.991 | ≥ 1 | 0.943
[6], first compound 0.0625 µg/mL | 0.895 | 0.897 | 0.905 | – | – | –
[6], first compound 0.25 µg/mL | 0.0328 | 0.0454 | 0.0523 | – | – | –
[7], first compound 0.5 µg/mL | 0.959 | 0.996 | 0.995 | – | – | –
[7], first compound 1 µg/mL | ≥ 1 | ≥ 1 | ≥ 1 | – | – | –
[7], first compound 2 µg/mL | ≥ 1 | ≥ 1 | ≥ 1 | – | – | –

CNC(C)C1CCC(N)C(OC2C(N)CC(N)C(OC3OCC(C)(O)C(NC)C3O)C2O)O1 (configuration not stated) [Gentamicin] + CCN(CC)CCOC(=O)c1ccc(N)cc1 [Procaine]
Details | Bliss interaction score
[1] | 0.0726
[2] | 0.099
[3] | -0.101
[4] | 0.0373

fitness
Details | partner 85.5 µg/mL | partner 171 µg/mL | partner 342 µg/mL
[5], first compound 2 µg/mL | ≥ 1 | 0.981 | 0.968
[5], first compound 4 µg/mL | ≥ 1 | 0.977 | 0.944
[5], first compound 8 µg/mL | 0.938 | 0.965 | 0.935
[6], first compound 0.0625 µg/mL | 0.89 | 0.872 | 0.871
[6], first compound 0.25 µg/mL | 0.0903 | 0.0388 | 0.109
[7], first compound 0.5 µg/mL | – | 0.975 | 0.925
[7], first compound 1 µg/mL | – | ≥ 1 | 0.99
[7], first compound 2 µg/mL | – | ≥ 1 | 0.944

fitness, [7], one replicate
Details | first compound 0.375 µg/mL | first compound 0.75 µg/mL | first compound 1.5 µg/mL
partner 85.5 µg/mL | ≥ 1 | ≥ 1 | ≥ 1
partner 171 µg/mL | ≥ 1 | ≥ 1 | 0.984
partner 342 µg/mL | ≥ 1 | ≥ 1 | ≥ 1
